{"source": "paper PMC6450887", "about": "“Metabolic resistance of the D-peptide RD2 developed for direct elimination of amyloid-β oligomers” (Scientific Reports, 2019)", "key": {"[1]": {"experiment": "Stability in human plasma, RP-HPLC", "type": "in vitro ADME", "details": "female, 37 °C", "experimental": "(§1) The preparation of the media was performed as described before in Elfgen et al.[24]. Preparation of simulated gastric and intestinal fluid (SGF & SIF) was done according to the European Pharmacopoeia 7.0. Plasma samples were obtained from human blood of a volunteer donor. Pooled human liver microsomes were purchased from Sekisui XenoTech (Kansas City, USA; H1000, Lot: 0710494 and 1210270; H1500, Lot: 1210079), from Sigma-Aldrich (St. Louis, USA; M0692, Lot: SLBL1433V; M0567, Lot: SLBR2706V and SLBN7300V) and from Gibco, Thermo Fisher Scientific (Waltham, USA; HMMCPL, Lot: PL050; HMMCPM, Lot: PL039). Pooled Sprague Dawley rat liver microsomes were purchased from Sigma-Aldrich (St. Louis, USA; M9066, Lot: SLBN0707V) and from Gibco, Thermo Fisher Scientific (Waltham, USA; RTMCPL, Lot: RT053). Pooled cynomolgus monkey liver microsomes were purchased from Gibco, Thermo Fisher Scientific (Waltham, USA; MKMCPL, Lot: MK062) and from Sekisui XenoTech (Kansas City, USA; P2000, Lot: 1210334). The liver microsomes were diluted in an NADPH regenerating system (NRS).\n(§2) For the stability tests, 150 µM RD2 or L-RD2 was incubated in SGF, SIF, human plasma and human liver microsomes in triplicate at 37 °C with slight shaking for different time periods. To prevent microbial contaminations in long-term plasma incubations, 0.1% sodium azide was added to the solutions. Microsomal long-term activity was examined by incubating microsomes without peptide for up to 24 h and adding L-RD2 after 8 and 24 h. The ability to degrade L-RD2 served as indicator for their activity. For the comparison of RD2 metabolite profiles across species, 150 µM RD2 was incubated in human, rat and cynomolgus liver microsomes at 37 °C for 2 and 24 h. The peptides were extracted by precipitating the proteins with trichloroacetic acid (TCA) and subsequent centrifugation, as described previously in Elfgen et al.[24]. Peptides immediately extracted from the media and precipitated media without peptides served as controls.\nFor sample analysis from stability tests (see 2.3), mobile phases were acetonitrile (A) and water (B) each supplemented with 0.15% trifluoroacetic acid (TFA) (v/v). The samples were measured isocratically at 10% solvent A for 30 min. This run conditions allowed us to detect smallest chemical changes including the differentiation between the original compound and a deamidated version (Fig. S1). RD2 and L-RD2 can potentially be deamidated at two sites, the C-terminus and the asparagine at position seven. Peak areas of the unmetabolized peptides after different incubation times were normalized to the peptides’ peak areas after direct extraction from the media. […] A chromatographic metabolite profile of L-RD2 in SIF was recorded with the same mobile phases but using a gradient from 0 to 30% solvent A in 30 min."}, "[2]": {"experiment": "Comparison of RD2 metabolite profiles across species: human liver microsomes", "type": "in vitro ADME", "experimental": "as §1, §2\nFor the comparison of RD2 metabolite profiles across species (see 2.3), mobile phases were acetonitrile (A) and water (B) each supplemented with 0.1% TFA. The gradient ran from 0 to 100% solvent A and is described in detail in Table S1. The chromatographic RD2 metabolite profiles were screened for potential human-specific metabolites. RD2 and the major RD2 metabolite present after 24 h of incubation in human liver microsome batches 7 and 8, HSM-3, were purified by RP-HPLC. Mobile phases were acetonitrile (A) and water (B) each supplemented with 0.15% TFA. The samples were separated isocratically at 10% solvent A for 30 min. RD2 as well as HSM-3 were collected and the samples were freeze-dried subsequently. The amount of the purified HSM-3 was calculated based on a calibration curve of 10 to 100 µM RD2 extracted from human liver microsomes."}, "[3]": {"experiment": "Comparison of RD2 metabolite profiles across species: rat liver microsomes", "type": "in vitro ADME", "experimental": "as §1\nas §2, with “The peptides were extracted by precipitating the proteins with trichloroacetic acid (TCA) and subsequent centrifugation, as described previously in Elfgen et al.[24]. Peptides immediately extracted from the media and precipitated media without peptides served as controls.” left out\nFor the comparison of RD2 metabolite profiles across species (see 2.3), mobile phases were acetonitrile (A) and water (B) each supplemented with 0.1% TFA. […] The amount of the purified HSM-3 was calculated based on a calibration curve of 10 to 100 µM RD2 extracted from human liver microsomes."}, "[4]": {"experiment": "Inhibition assay: degradation of L-peptide […] with and without RD2", "type": "in vitro ADME", "details": "150 µM RD2 + 150 µM L-peptide; SGF, SIF 5 min; plasma, liver microsomes 30 min", "experimental": "To investigate whether RD2 acts as potential inhibitor for the enzymes contained in SGF, SIF, human blood plasma and human liver microsomes, an exemplary L-peptide, […], was incubated in these media with and without RD2 and the potential inhibition of the L-peptide’s degradation was monitored. This control was intended to reveal a potential resistance of RD2 to degradation due to enzyme inhibition instead of pure degradation resistance. […] For this purpose, 150 µM of the L-peptide with or without 150 µM RD2 was incubated in SGF, SIF, human plasma and liver microsomes and both peptides were extracted from the media immediately or after 5 min (SGF, SIF) or 30 min (plasma, liver microsomes) with the method mentioned under point 2.3. Time dependent compound degradation or modification was followed by RP-HPLC (see 2.8).\nFor analysis of the inhibition assay with enzymes contained in SGF, SIF, plasma and liver microsomes (see 2.4), RD2, […] and remaining media components were separated using the mobile phases acetonitrile (A) and water (B) each supplemented with 0.15% TFA and a gradient from 0 to 50% solvent A in 15 min."}, "[5]": {"target": "CYP2D6 (Homo sapiens, UniProt P10635)", "sequence (P10635 whole entry, canonical isoform)": "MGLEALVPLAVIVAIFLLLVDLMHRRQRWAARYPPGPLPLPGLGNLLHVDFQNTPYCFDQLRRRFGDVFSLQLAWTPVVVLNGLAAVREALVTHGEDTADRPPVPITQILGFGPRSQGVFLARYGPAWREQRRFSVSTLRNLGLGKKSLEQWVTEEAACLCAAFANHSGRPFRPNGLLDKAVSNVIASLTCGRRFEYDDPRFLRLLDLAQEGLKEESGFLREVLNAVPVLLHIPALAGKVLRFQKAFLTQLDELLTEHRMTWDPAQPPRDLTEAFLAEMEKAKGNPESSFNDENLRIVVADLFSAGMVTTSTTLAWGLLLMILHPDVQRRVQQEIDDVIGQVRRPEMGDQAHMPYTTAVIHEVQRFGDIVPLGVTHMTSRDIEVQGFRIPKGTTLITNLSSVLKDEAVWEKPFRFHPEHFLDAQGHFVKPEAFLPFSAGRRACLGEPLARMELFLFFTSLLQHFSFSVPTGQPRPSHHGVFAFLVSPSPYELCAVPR", "experiment": "CYP isoform inhibition in human liver microsomes (Cyprotex)", "type": "in vitro ADME", "experimental": "The experiments were performed by Cyprotex. […] All assays were performed sevenfold."}, "[6]": {"target": "CYP2C9 (Homo sapiens, UniProt P11712)", "sequence (P11712 whole entry, canonical isoform)": "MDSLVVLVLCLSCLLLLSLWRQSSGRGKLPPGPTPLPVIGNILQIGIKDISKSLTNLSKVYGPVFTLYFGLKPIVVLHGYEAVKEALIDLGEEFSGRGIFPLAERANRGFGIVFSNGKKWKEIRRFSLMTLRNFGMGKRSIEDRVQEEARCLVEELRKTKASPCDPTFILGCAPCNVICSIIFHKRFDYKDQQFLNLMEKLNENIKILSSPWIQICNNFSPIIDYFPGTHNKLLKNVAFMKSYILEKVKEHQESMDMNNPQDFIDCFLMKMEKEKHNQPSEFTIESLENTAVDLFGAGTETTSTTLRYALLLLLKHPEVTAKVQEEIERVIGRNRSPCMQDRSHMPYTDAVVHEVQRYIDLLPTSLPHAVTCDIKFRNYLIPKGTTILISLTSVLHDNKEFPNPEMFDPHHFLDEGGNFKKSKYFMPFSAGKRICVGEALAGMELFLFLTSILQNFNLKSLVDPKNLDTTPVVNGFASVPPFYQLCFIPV", "experiment": "CYP isoform inhibition in human liver microsomes (Cyprotex)", "quoted_text": "(§3) The experiments were performed by Cyprotex. […] The reactions were terminated by methanol and the generated metabolites were monitored by LC-MS/MS or fluorescence. […] All assays were performed sevenfold. […] For all other substrates, the termination plates were centrifuged at 2,500 rpm and 4 °C for 30 min and aliquots of the supernatants were combined and transferred to fresh 96-well plates. Formic acid in deionized water (final concentration 0.1%) containing internal standard was added to the supernatants prior to cassette analysis by LC-MS/MS. A decrease in the formation of the metabolite compared to the vehicle control was used to calculate the IC50 values."}, "[7]": {"target": "CYP2C19 (Homo sapiens, UniProt P33261)", "sequence (P33261 whole entry, canonical isoform)": "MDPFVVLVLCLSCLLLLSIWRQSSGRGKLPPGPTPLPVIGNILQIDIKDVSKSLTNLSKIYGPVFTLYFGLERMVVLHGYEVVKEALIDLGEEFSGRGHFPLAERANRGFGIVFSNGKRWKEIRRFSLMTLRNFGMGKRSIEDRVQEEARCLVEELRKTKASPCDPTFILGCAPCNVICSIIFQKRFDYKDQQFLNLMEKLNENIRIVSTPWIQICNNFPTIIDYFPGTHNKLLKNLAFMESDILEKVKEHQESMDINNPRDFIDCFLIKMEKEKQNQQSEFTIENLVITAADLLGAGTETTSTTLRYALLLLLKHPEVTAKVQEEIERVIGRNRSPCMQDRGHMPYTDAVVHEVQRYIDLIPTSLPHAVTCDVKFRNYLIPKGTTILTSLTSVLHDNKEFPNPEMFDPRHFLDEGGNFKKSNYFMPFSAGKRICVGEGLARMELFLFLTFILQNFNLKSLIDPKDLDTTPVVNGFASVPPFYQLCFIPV", "experiment": "CYP isoform inhibition in human liver microsomes (Cyprotex)", "quoted_text": "as §3"}, "[8]": {"target": "CYP3A4 (Homo sapiens, UniProt P08684)", "sequence (P08684 whole entry, canonical isoform)": "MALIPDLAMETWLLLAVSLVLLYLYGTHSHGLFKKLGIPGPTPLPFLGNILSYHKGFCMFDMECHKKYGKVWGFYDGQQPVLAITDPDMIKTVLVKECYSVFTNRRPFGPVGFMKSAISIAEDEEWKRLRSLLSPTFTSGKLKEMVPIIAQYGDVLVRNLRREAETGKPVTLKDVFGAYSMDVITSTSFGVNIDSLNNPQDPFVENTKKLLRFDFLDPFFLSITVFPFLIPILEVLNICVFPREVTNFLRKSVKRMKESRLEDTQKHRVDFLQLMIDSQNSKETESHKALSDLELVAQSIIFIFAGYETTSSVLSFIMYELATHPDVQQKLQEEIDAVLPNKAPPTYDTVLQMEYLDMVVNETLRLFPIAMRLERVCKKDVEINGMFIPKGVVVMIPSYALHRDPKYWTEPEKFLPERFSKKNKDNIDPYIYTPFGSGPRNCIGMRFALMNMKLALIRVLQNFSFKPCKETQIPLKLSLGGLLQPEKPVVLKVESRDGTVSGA", "experiment": "CYP isoform inhibition in human liver microsomes (Cyprotex)", "quoted_text": "as §3"}}, "note": "Entries after “also recorded” stand apart in the source; their conditions may differ. Non-standard residues stand in square brackets, D forms with d. Residues, ends and D or L forms follow the SMILES beside them.", "data": [{"smiles": "CC(C)C[C@@H](NC(=O)[C@H](NC(=O)[C@H]1CCCN1)[C@H](C)O)C(=O)N[C@H](Cc1c[nH]cn1)C(=O)N[C@@H](C(=O)N[C@H](Cc1c[nH]cn1)C(=O)N[C@H](CC(N)=O)C(=O)N[C@H](CCCNC(=N)N)C(=O)N[C@H](CCCNC(=N)N)C(=O)N[C@H](CCCNC(=N)N)C(=O)N[C@H](CCCNC(=N)N)C(=O)N[C@H](CCCNC(=N)N)C(N)=O)[C@H](C)O", "note": "[RD2, ptlhthnrrrrr] (H-[dP][dT][dL][dH][dT][dH][dN][dR][dR][dR][dR][dR]-NH2)", "values": [{"measurement": "metabolised at 480 h, 150 µM", "setting": "[1]; 150 µM, within 20 days, read-out: peptide degraded", "result": "87 ± 3", "unit": "%"}, {"measurement": "half-life at 150 µM", "setting": "[1]; read-out: half-life (first order kinetics fit) (converted)", "result": 216, "unit": "h"}, {"measurement": "metabolization of RD2 after 2 h", "setting": "[2]; human samples 1–6, 150 µM, 2 h", "result": "unmetabolized"}, {"measurement": "decrease of the intensity of the RD2 peak", "setting": "[2]; human samples 1–6, 24 h", "result": "21 ± 7", "unit": "%"}, {"measurement": "metabolised at 24 h, 150 µM", "setting": "[3]; Sprague Dawley, pooled rat liver microsomes, rat samples, 24 h, read-out: decrease of the intensity of the RD2 peak", "result": "17 ± 4", "unit": "%"}, {"measurement": "metabolization of RD2 after 2 h", "setting": "[3]; rat liver microsomes, 150 µM, 2 h", "result": "unmetabolized"}, {"measurement": "influence of RD2 on degradation of the L-peptide KLVFFRRRRRR", "setting": "[4]", "result": "not influenced; also recorded: did not influence the degradation of the L-peptide in any of the media"}, {"measurement": "inhibition of CYP2D6", "setting": "[5]; concentration range 0 to 25 µM", "result": "did not inhibit"}, {"measurement": "inhibition at 0.25 µM", "setting": "[5]; human, human liver microsomes, 0.25 µM RD2", "result": 1.33, "unit": "%"}, {"measurement": "inhibition at 1 µM", "setting": "[5]; human, human liver microsomes, 1 µM RD2", "result": 0.671, "unit": "%"}, {"measurement": "inhibition at 2.5 µM", "setting": "[5]; human, human liver microsomes, 2.5 µM RD2", "result": 3.53, "unit": "%"}, {"measurement": "inhibition at 10 µM", "setting": "[5]; human, human liver microsomes, 10 µM RD2", "result": -5.9, "unit": "%"}, {"measurement": "inhibition at 25 µM", "setting": "[5]; human, human liver microsomes, 25 µM RD2", "result": -9.57, "unit": "%"}, {"measurement": "inhibition of CYP2C9", "setting": "[6]; concentration range 0 to 25 µM", "result": "did not inhibit"}, {"measurement": "inhibition at 0.25 µM", "setting": "[6]; human, human liver microsomes", "result": 6.15, "unit": "%"}, {"measurement": "inhibition at 1 µM", "setting": "[6]; human, human liver microsomes", "result": -0.871, "unit": "%"}, {"measurement": "inhibition at 2.5 µM", "setting": "[6]; human, human liver microsomes", "result": 0.607, "unit": "%"}, {"measurement": "inhibition at 10 µM", "setting": "[6]; human, human liver microsomes", "result": -7.38, "unit": "%"}, {"measurement": "inhibition at 25 µM", "setting": "[6]; human, human liver microsomes", "result": -26.8, "unit": "%"}, {"measurement": "inhibition of CYP2C19", "setting": "[7]; concentration range 0 to 25 µM", "result": "did not inhibit"}, {"measurement": "inhibition at 0.25 µM", "setting": "[7]; human, human liver microsomes", "result": 7.64, "unit": "%"}, {"measurement": "inhibition at 1 µM", "setting": "[7]; human, human liver microsomes", "result": 2.47, "unit": "%"}, {"measurement": "inhibition at 2.5 µM", "setting": "[7]; human, human liver microsomes", "result": 2.54, "unit": "%"}, {"measurement": "inhibition at 10 µM", "setting": "[7]; human, human liver microsomes", "result": -5.77, "unit": "%"}, {"measurement": "inhibition at 25 µM", "setting": "[7]; human, human liver microsomes", "result": -45.5, "unit": "%"}, {"measurement": "inhibition of CYP3A4", "setting": "[8]; concentration range 0 to 25 µM", "result": "did not inhibit"}, {"measurement": "inhibition at 0.25 µM", "setting": "[8]; human, human liver microsomes", "result": -0.223, "unit": "%"}, {"measurement": "inhibition at 1 µM", "setting": "[8]; human, human liver microsomes", "result": 5.77, "unit": "%"}, {"measurement": "inhibition at 2.5 µM", "setting": "[8]; human, human liver microsomes", "result": 1.71, "unit": "%"}, {"measurement": "inhibition at 10 µM", "setting": "[8]; human, human liver microsomes", "result": -3.08, "unit": "%"}, {"measurement": "inhibition at 25 µM", "setting": "[8]; human, human liver microsomes", "result": -12, "unit": "%"}]}]}
